Laboratory results as given in patent US8877748B2, “Heterocyclic fused anthraquinone derivatives, manufacturing method and pharmaceutical composition using thereof” (National Defense Medical Center, priority 2012, dated 2014).

What was measured:
[1] = system: T-47D; experiment: NCI one-dose screening, breast cancer T-47D; format: cell-based, human; details: T-47D
[2] = system: HCT-116; experiment: NCI one-dose screening, colon cancer HCT-116; format: cell-based, human; details: HCT-116, 10 μM
[3] = system: KM12; experiment: NCI one-dose screening, colon cancer KM12; format: cell-based, human; details: KM12, 10 μM
[4] = system: BT-549; experiment: NCI one-dose screening, breast cancer BT-549; format: cell-based, human; details: BT-549, 10 μM
[5] = system: OVCAR-8; experiment: NCI one-dose screening, ovarian cancer OVCAR-8; format: cell-based, human; details: OVCAR-8, 10 μM
[6] = system: HT29; experiment: NCI one-dose screening, colon cancer HT29; format: cell-based, human; details: HT29, 10 μM
[7] = system: HCC-2998; experiment: NCI one-dose screening, colon cancer HCC-2998; format: cell-based, human; details: HCC-2998, 10 μM
[8] = system: A549/ATCC; experiment: NCI one-dose screening, non-small cell lung cancer A549/ATCC; format: cell-based, human; details: A549/ATCC
[9] = system: RXF, 393; experiment: NCI one-dose screening, renal cancer RXF, 393; format: cell-based, human; details: RXF 393, 10 μM
[10] = system: IGROV1; experiment: NCI one-dose screening, ovarian cancer IGROV1; format: cell-based, human; details: IGROV1, 10 μM
[11] = system: HCT-15; experiment: NCI one-dose screening, colon cancer HCT-15; format: cell-based, human; details: HCT-15, 10 μM
[12] = system: UACC-257; experiment: NCI one-dose screening, melanoma UACC-257; format: cell-based, human; details: UACC-257, 10 μM
[13] = system: PRMI-8226 cell line; experiment: NCI one-dose screening, leukemia PRMI-8226; format: cell-based, human; details: RPMI-8226, 10 μM
[14] = system: OVCAR-5; experiment: NCI one-dose screening, ovarian cancer OVCAR-5; format: cell-based, human; details: OVCAR-5, 10 μM
[15] = system: PC-3; experiment: NCI one-dose screening, prostate cancer PC-3; format: cell-based, human; details: PC-3, 10 μM
[16] = system: HOP-92; experiment: NCI one-dose screening, non-small cell lung cancer HOP-92; format: cell-based, human; details: HOP-92, 10 μM

Row | Structure (SMILES) | Growth Percent (10 μM) [1] | Growth Percent (10 μM) [2] | Growth Percent (10 μM) [3] | Growth Percent (10 μM) [4] | Growth Percent (10 μM) [5] | Growth Percent (10 μM) [6] | Growth Percent (10 μM) [7] | Growth Percent (10 μM) [8] | Growth Percent (10 μM) [9] | Growth Percent (10 μM) [10] | Growth Percent (10 μM) [11] | Growth Percent (10 μM) [12] | Growth Percent (10 μM) [13] | Growth Percent (10 μM) [14] | Growth Percent (10 μM) [15] | Growth Percent (10 μM) [16] | melting point
1 | O=C1c2ccccc2C(=O)c2c1cc(N1CCCC1)c1nsnc21 [C7, 4-(pyrrolidine-1-yl)anthra-[2,1-c][1,2,5] thiadiazol-6,11-dione] | 78.19% | 78.67% | 95.18% | 86.83% | 82.12% | 98.60% | 104.58% | 63.51% | 97.02% | 75.83% | 61.25% | 84.14% | 76.16% | 111.75% | 71.01% |  | 
2 | CN(C)CCNc1cc2c(c3nsnc13)C(=O)c1ccccc1C2=O [C8] | 12.90% | −2.07% | −21.66% | −99.43% | −28.91% | −45.50% | −86.18% | −60.09% | −59.58% | −28.40% | −60.44% | −88.80% | −29.81% | −76.97% | −18.35% | −25.30% | 
3 | CC(C)Sc1cc2c(c3nsnc13)C(=O)c1ccccc1C2=O [C18, 4-(isopropylthio)anthra[2,1-c][1,2,5] thiadiazol-6,11-dione] | −24.37% | −36.70% | 19.33% | 10.84% | −22.64% | 48.08% | 21.00% | −8.14% | 13.64% | −32.91% | 15.31% | −91.69% | −38.03% | −27.85% | −13.43% |  | 193 to 194 °C
4 | Cc1ccc(Nc2cc3c(c4nsnc24)C(=O)c2ccccc2C3=O)cc1 [C64, 4-(p-tolylamino)anthra[2,1-c][1,2,5] thiadiazol-6,11-dione] | 64.48% | 31.32% | 64.56% | 76.36% | 53.96% | 96.29% | 95.82% | 56.25% | 71.05% | 49.40% | 32.24% | 71.17% | 21.59% | 109.85% | 45.73% |  | 
